# Assays:
# [1] = tested on: mitochondrial protein acetylation; Mrpp2, mt-Cox1, mt-Nd1 protein levels; test: Western blot of cardiac mitochondrial protein acetylation and of Mrpp2, mt-Cox1, mt-Nd1; assay type: in vivo, mouse
# Procedure: Western blot. For Western blot procedures cardiac tissues were homogenized with RIPA buffer (ThermoScientific Pierce RIPA Buffer #89900) and protease inhibitors (Roche Cat. No. 11-836-170-001) using bullet blender at 4° C. for 10 minutes. Protein concentrations of supernatants were collected after centrifugation and quantified using Pierce™ BCA® Protein Assay Kits and Reagents (#23225). Protein lysates in Lammeli sample buffer were loaded to 10% SDS-PAGE, transferred to PVDF membrane and blocked with 5% BSA in TSBT. Specific proteins were detected by specific antibodies listed above and corresponding secondary antibodies. Signals were visualized by HRP derived chemiluminescence (Amersham ECL Western Blotting Detection System #RPN2106) and film. Protein levels were quantified by Image-J.
# Mitochondrial Isolation from cardiac tissue. Hearts were excised from mice, the aortas and atria were removed. Heart tissues were rinsed briefly in ice-cold mitochondria isolation medium (MIM) (70 mM sucrose, 220 mM mannitol, 5 mM MOPS, 1 mM EDTA, 0.025% fatty acid-free BSA, pH 7.4 with 5M KOH) to remove residual blood. Tissues were minced on ice and resuspended in fresh MIM, followed by trypsin digestion (10 ug/ml) and incubated on ice for 10 min. Trypsin digestion was stopped by the addition of trypsin inhibitor (0.5 mg/ml) and additional BSA (1 mg/ml) to MIM. The tissue pellets were resuspended in fresh MIM containing 1 mg/ml BSA, and transferred to a Teflon-glass tube and homogenized on ice with a Teflon pestle. The homogenates were centrifuged for 10 min at 800×g at 4° C. The supernatants were collected and centrifuged for 10 min at 8,000×g at 4° C. The supernatant was discarded and the mitochondrial pellets were resuspended in MIM to wash. The resuspension was centrifuged for 10 min at 8,000×g at 4° C., and the supernatant discarded. The mitochondrial pellet was resuspended to a concentrated volume for protein quantification by BCA Assay (Pierce).
# Antibodies. Acetylated lysine antibody (Cell Signaling 9441s), Mrpp2 (Hsd17b10, ERAB) from Proteintech catalog number 10648-1-AP, Mrrp1 (Trmt10c) from Proteintech catalog number 29087-1-AP, Mt-C01 from Abcam [1D6E1A8] (ab14705), and Mt-Nd1 from Santa Cruz (C-18) catalog sc-20493, RXRα (Cell Signaling D6H10) Rabbit mAb, SirT3 (Cell Signaling D22A3) Rabbit mAb, ATP5B (E-1) Santa Cruz Biotechnology sc-55597.
# [2] = tested on: isoproterenol (ISO) induced heart failure in WT and Sirt3Ko mice; test: Isoproterenol (ISO) minipump induced heart failure, echocardiography and HW/TL; assay type: in vivo, mouse; settings: 14 days of ISO, NR 500 mg/kg body weight IP daily
# Procedure: Minipump implantation. Pathologic hypertrophy was induced by treating male (3-4 months old) Sirt3ko and WT mice with isoproterenol (ISO) or vehicle for 14 days. Mice with and without GW6471(4.5 mg/kg/day) were treated with NR (500 mg/kg body weight IP daily) or vehicle starting at day one after mini-pump insertion. Briefly, an incision was made in the skin between the shoulder blades. A deep subcutaneous pocket was made caudal to the incision using blunt dissection. The sterile minipump (Alzet #2002) was inserted into the pocket, and the incision was closed with wound clips. Isoproterenol (30 mg/kg/day) was delivered by osmotic minipump for 14 days. Minipumps carrying saline were used as a control.
# Transthoracic Echocardiography. Echocardiography of hearts was performed at indicated time after surgery using the VEVO 2100 high-frequency, high-resolution digital imaging system (VisualSonics) equipped with a MS400 Microscan Transducer on anesthetized mice (0.5%-2% isoflurane in 95% oxygen). Measurements were made when heart rate was >450 bpm. Cardiac function and geometry measurements were measured in parasternal short axis view. M-mode images were used for analysis and calculated by the average of at least three cardiac cycles and carried out in a blind fashion. Hearts were harvested at 12-week post-surgery for subsequent experiments and biochemical assays.
# Organ weight and histological assessment. Hearts from mice were harvested, rinsed briefly in 1×PBS, blotted dry, and weighed. Lungs from the same mice were harvested, weighed, then dried at 56 C. After 72 hours the lungs were weighed again. Heart weight (HW) and Lung weight (LW) was normalized to tibia length (TL) to assess changes in hypertrophic growth and lung edema, respectively. For histology, hearts were perfusion fixed with 10% neutral buffered formalin. Longitudinal sections of hearts were stained with Masson's Trichrome for assessment of fibrosis by the University of Washington Histology and Imaging Core.
# [3] = tested on: heart mRNA levels (Nppa, Ctgf, mtDNA encoded genes, PPARα/RXRα target genes); test: RT-PCR of heart transcripts and mitochondrial RNA junctions; assay type: in vivo, mouse
# Procedure: RNA Extraction and Quantitative Real-Time Polymerase Chain Reaction (RT-PCR). Total RNA was isolated from frozen heart tissue using the RNeasy fibrous Kit (Qiagen). Total RNA was reverse-transcribed into first-strand cDNA using Iscript (Bio-rad) according to manufacturer's guidelines. Real Time PCR was performed using SYBR green (Bio-Rad). Results of mRNA levels were normalized to 18S rRNA levels and reported as fold-change over control.
# RXRα = test: Chromatin immunoprecipitation (ChIP) of RXRα at the Acadm promoter PPRE; assay type: in vivo; settings: ISO mouse hearts, NR
# Procedure: Chromatin immunoprecipitation (ChIP). The EZ ChIP kit (EMD Millipore catalog #17-371) was used according to the manufacturer's protocol. Briefly, heart tissue was cut into small pieces using a razor blade in a petri dish on ice. The cubed tissue was incubated in fixation solution (1% formaldehye) in a conical tube and rotated at room temperature for 15 minutes to crosslink proteins and chromatin. The reaction was stopped by adding 0.125M Glycine for 5 min at room temperature. The contents were homogenized with a hand-held tissue homogenizer for 45 seconds then pelleted by centrifugation for 3 minutes at 1,250×g at 4C. The supernatant was discarded and the pellet was resuspended in 10 ml ice-cold PBS wash buffer followed by centrifugation at 1,250×g for 3 minutes. This was wash step was repeated on ice. The supernatant was discarded and the pellet resuspended in 5 ml chromatin prep buffer and incubated on ice for 10 minutes. The resuspended pellet was homogenized on ice with a dounce homogenizer for 30 strokes and then contents transferred to new conical tube on ice. The suspension was centrifuged 3 minutes at 1,250×g at 4C then supernatant discarded. The pellet was resuspended in 1 ml Chip buffer and transferred to new centrifuge tube then incubated on ice for 10 minutes. […] Purified chromatin was analyzed on a 1% agarose gel to determine the shearing efficiency. […]
compound,measurement,setting,value
"NC(=O)c1ccc[n+]([C@@H]2O[C@H](CO)[C@@H](O)[C@H]2O)c1 [NR, Nicotinamide riboside chloride]",Mitochondrial protein acetylation,[1]; NR treated Sirt3Ko mice,no change
same,Mrpp2 protein level,[1]; NR treated TAC hearts,normalization
same,Protein levels of mt-Cox1 and mt-Nd1,[1]; TAC hearts that received NR,preserved
same,Mitochondrial protein hyperacetylation,[1]; WT control mice after TAC,reversed the protein hyperacetylation
same,Cardiac hypertrophy,[2],partially reduced
same,FS %,[2],increased
same,Atrial natriuretic peptide (Nppa) levels,[3]; Sirt3ko and WT TAC mice,decreased
same,Connective growth factor (Ctgf) levels,[3]; Sirt3ko and WT TAC mice,decreased
same,"Expression of mtDNA encoded genes (mt-Nd1, mt-Cox1 and mt-Cytb)","[3]; TAC hearts, Sirt3Ko and WT",improved
same,Expression of nuclear DNA encoded ETC genes,"[3]; TAC hearts, Sirt3Ko and WT",not changed
same,"Expression of PPARα target genes (Acadm, Ucp2, Ucp3, Octn2, Cpt1b)",[3]; failing (TAC) hearts,increased
same,"Accumulation of mitochondrial RNA precursor fragments (Nd1-Nd2, Cox1-Cox2 junctions)",[3]; failing hearts of WT and Sirt3Ko mice,removed the accumulation of RNA precursor fragments
same,Binding occupancy of RXRα to the PPARα response element (PPRE) in the Acadm promoter,RXRα,increased
